Values after ≈ are worked out from the molar mass of the structure shown.

One may read the IC50 as the point on the concentration scale where inhibition reaches its midpoint. A high value points to weaker potency in that assay. What is called GI50 is the concentration at which growth is held to half of that of the control.

The target in series [1] is T1, farnesyl transferase (파네실 전달효소) (Rattus norvegicus, UniProt Q02293+Q04631).
T1 construct: Q 세파로즈 고속 칼럼(Q Sepharose Fast Flow column)을 이용하여 부분 정제한 것을 사용하였다; from tissue; host or cells: rat (Sprague Dawley, male) brain homogenate, partially purified on Q Sepharose Fast Flow
The series is described as follows: Farnesyl transferase inhibition, SPA with 3H-FPP and biotin-lamin B peptide. Type of series: biochemical, rat (Sprague Dawley). The following applies: 50% inhibitory concentration; room temperature, 30 min.

Series [2] concerns colorectal cancer cells SW620 (대장암세포 SW620). The series can be described thus: WST-1 growth inhibition, SW620. The following applies: Homo sapiens, SW-620, SW620, 48 h. Type of series: cell-based. A general note: Tetrazolium dyes change colour on reduction, which living cells bring about.
Series [3] concerns colorectal cancer cells HCA-7 (대장암세포 HCA-7). The series can be described thus: WST-1 growth inhibition, HCA-7. In kind it is cell-based. The conditions noted are these: Homo sapiens, HCA-7, 48 h.
The test system of series [4] is colorectal cancer cells HCT116 (대장암세포 HCT116). The series is described as follows: WST-1 growth inhibition, HCT116. The following applies: Homo sapiens, HCT-116, HCT116, 48 h. Type of series: cell-based.
Another series deals with HEK293 (신장암세포 HEK293). The series is described as follows: WST-1 growth inhibition, HEK293. In kind it is cell-based. The following applies: Homo sapiens, HEK293, 48 h.
Series [5] concerns breast cancer cells MDA-MB-231 (유방암세포 MDA-MB-231). The series can be described thus: WST-1 growth inhibition, MDA-MB-231. Type of series: cell-based. The following applies: Homo sapiens, MDA-MB-231, 48 h.
Series [6] deals with lung cancer cells NCI-H23 (폐암세포 NCI-H23). The series is described as follows: WST-1 growth inhibition, NCI-H23. Type of series: cell-based. The conditions noted are these: Homo sapiens, NCI-H23, 48 h.
The nature of a further series: Solubility. Type of series: physicochemical.
Series [7] deals with lung cancer cells A549 (폐암세포 A549). The series can be described thus: WST-1 growth inhibition, A549. In kind it is cell-based. The conditions noted are these: Homo sapiens, A549, 48 h.
The subject of series [8] is prostate cancer cells DU145 (전립선암세포 DU145). The series can be described thus: WST-1 growth inhibition, DU145. Type of series: cell-based. The conditions noted are these: Homo sapiens, DU-145, DU145, 48 h.

In the case of `COC(/C=C/c1ccccc1)=C1C(=O)C(OC)=C(OC)C1=O` [Methyllinderone, methyllinderone], in series [1], the IC50 stood at 43.3 µM. The GI50 in series [2] is 3.5 µg/mL (≈ 11.7 µM); in series [3] it was 0.52 µg/mL (≈ 1.73 µM); in [4], 0.45 µg/mL (≈ 1.5 µM); with HEK293 (신장암세포 HEK293), 3 µg/mL (≈ 9.99 µM); in series [5], 3.8 µg/mL (≈ 12.7 µM); in [6], 1.1 µg/mL (≈ 3.66 µM). Moreover, in series [7], the GI50 turned out to be 3.2 µg/mL (≈ 10.7 µM). The solubility result is reported as “가용성” in the series “Solubility” (Alcohols, DMSO) and “불용성” in “Solubility” (Hexane, H2O).
With `COC1=C(OC)C(=O)C(=C(O)/C=C/c2ccccc2)C1=O` [Linderone, linderone], in series [1], half-maximal inhibition (IC50) required 33.3 µM. The solubility entry is reported as “가용성” in the series “Solubility” (Alcohols, DMSO) and “불용성” in “Solubility” (Hexane, H2O).
With `COC1=CC(=O)C(=C(/C=C/c2ccccc2)OC)C1=O` [Methyllucidone, methyllucidone], half-maximal inhibition in series [1] (IC50) required 40.7 µM. Further, the GI50 in [2] is 2 µg/mL (≈ 7.4 µM); in series [3], 0.39 µg/mL (≈ 1.44 µM); in series [4], 0.26 µg/mL (≈ 0.962 µM); in the series on HEK293 (신장암세포 HEK293) it was 4.8 µg/mL (≈ 17.8 µM); in [8] it was 1.8 µg/mL (≈ 6.66 µM); in series [5] it was 3.5 µg/mL (≈ 12.9 µM). The GI50 turned out to be 1 µg/mL (≈ 3.7 µM) in series [6] and 15 µg/mL (≈ 55.5 µM) in series [7]. Besides, the solubility entry in the series “Solubility” (Alcohols, DMSO) is reported as “가용성”; in the series “Solubility” (Hexane, H2O), “불용성”.
In [1], `COC1=CC(=O)C(=C(O)/C=C/c2ccccc2)C1=O` [Lucidone, lucidone] returned an IC50 of 125 µM. In addition, the solubility result is given as “가용성” in the series “Solubility” (Alcohols, DMSO) and “불용성” in “Solubility” (Hexane, H2O).

The values above are taken from KR20060104555A, “사이클로펜타디온 유도체를 포함하는 항암 조성물” (한국생명공학연구원, priority 2005, dated 2006).
